Source: patent US20040180959A1, “Gabapentin analogues for fibromy algia and concomitant disorders” (priority 2002, published 2004)

Legend:
Format in all cases: in vivo
[1] = test system: mice; assay: Inverted Screen Test to assess coordination; conditions: doses up to 100 mg/kg PO, immediately following the TST, 1-minute trial
Description: Immediately following the TST, mice were also tested in the Inverted Screen Test to assess coordination. Animals were given a 1-minute trial in which they had to climb to the top of the inverted screen or to simply hang on and not fall off.

[2] = test system: Wistar rats; assay: Water-lick (Vogel) Conflict Test in rats; conditions: for Percent of Animals Tested With >20 Shock Episodes / Mean Shock Episodes (1 mA): pretreatment 120 minutes; for Mean Shock Episodes (1 mA): Mean ± SEM
Description: In each experiment, naive adult male Wistar rats between 170 to 200 g were randomly divided into groups (N=10-30/group) and deprived of water for 48 hours prior to testing. Food was available on Day 1 and removed 24 hours prior to test Day 2.
Apparatus: The modular operant test cage (Coulbourn Instruments) measures 10.25×12×12 in. The test chambers feature 3 modular bays on each side of the cage for a total of 6 bays. A module optical lickometer is mounted on one side of the chamber 5 cm above the grid floor. The lickometer is used to measure licking-drinking from a water bottle mounted outside the test chamber. A photo beam is piped via glass rods to the tip of the drink tube across a gap at the end of the tube. The animals tongue breaks the beam on each lick. The front and back of the test chamber is made of clear Plexiglas. The front door is covered to reduce distractions from inside the test room. The back of the test chamber is facing a wall, away from the flow of traffic within the testing room and remains uncovered to provide the opportunity for observations during testing. Shocks are delivered using a (Coulbourn) programmable universal shocker calibrated to deliver a 1 mA shock for 1 second through the drink tube.
Procedure: On Day 1, after a 24-hour water deprivation, experimental subjects were placed into the test chambers and allowed to drink unpunished. Drinking was limited to 500 responses or approximately 5 mL of water during a 10 minute session. Immediately following the unpunished drinking session, rats were returned to their home cages, deprived of water for an additional 24 hours and was food deprived. […] After the pretreatment period rats were placed into a test chamber and allowed to drink for 10 minutes. After every 10 licks, rats received a 1-second shock (1 mA) through the drink tube. Thus, a conflict or anxiety-producing situation exists. Rats are motivated to drink; however, they are inhibited by the shock. Anxiety is reflected by the low amounts of drinking. Standard anxiolytic drugs produce effects that allow rats to overcome this behavioral inhibition and drink despite the shock.
All data were analyzed using a Kruskal-Wallis one Way Analysis of Variance on Ranks and Mann-Whitney Rank Sum Tests.
Quantitative Analysis: A quantitative analysis represents the percentage of subjects within a treatment group that receives >20 shock episodes during a test session. This number provides a quantitative comparison regarding the distribution of the responses.
Compound A was dissolved in water and tested orally as a solution from 0.3 to 100 mg/kg in rats and 3 to 300 mg/kg in mice. Dosages are expressed as the active moiety and were administered in a volume of 1 mL/kg for rats and 10 mL/kg for mice.

[3] = test system: Sprague-Dawley rats; assay: Rat model of footpad tactile allodynia from prior injection of acid into the gastrocnemius muscle; conditions: for Mean Paw Withdrawal Threshold before dose (g ± S.E.M.): after acid injection
Description: A rat model of persistent mechanical allodynia has been developed that is consistent with the muscle tenderness found in these patients. […] This model was utilized to evaluate compound A for its ability to inhibit allodynia.
On Day 0, male Sprague-Dawley rats (˜200 g body weight) in their dark cycle were placed in suspended wire-bottom cages and allowed to acclimate for 0.5 hours. […] Von Frey hairs were applied to the plantar surface for up to 6 seconds, and a flinching of the paw during that time frame was considered a positive response. After assessment, the right gastrocnemius muscle was shaved, swabbed with alcohol, and injected with 0.1 mL of 0.9% NaCl solution acidified to pH 4 with HCl. The injection was repeated on Day 5. Animals were manipulated with a dynamic plantar aesthesiometer (Ugo Basile, Comerio-Varese, Italy) on Days 6, 7, and 8 to facilitate induction of the allodynia. To screen the rats for the development of allodynia, the 15.1 g Von Frey hair was applied to the ipsilateral paw on Day 11. Positive responders from that test were included in the compound evaluation study. On Day 12 (the day of peak allodynia), animals were assigned into treatment groups, and then their ipsilateral paw withdrawal thresholds were determined to establish the allodynia (reduction in paw withdrawal threshold) compared to baseline values. Rats were then orally dosed with 10 mL/kg vehicle (0.5% hydroxypropyl-methylcellulose/0.2% Tween 80) or the indicated dose of compound A. Paw withdrawal thresholds were reassessed by Von Frey hairs in blinded fashion 2 hours after dosing for the dose-response study, and 2, 5, 8, and 24 hours after dosing in the time course experiment. The inhibition of allodynia was determined for each animal by dividing the increase in paw withdrawal threshold after treatment by the difference between baseline and pretreatment paw withdrawal values. This fraction was then converted to percent inhibition by multiplying by 100.

[4] = doses 3× and 10× the Vogel MED (10 and 30 mg/kg)
[5] = oral, 2 hour pretreatment, rats
[6] = 10 mg/kg oral, 2 hours after treatment (Table II)
[7] = 10 mg/kg oral, 2 hr after dose (Table I)
[8] = 10 mg/kg oral, 5 hours after treatment
[9] = 10 mg/kg oral, 8 hours after treatment
[10] = 10 mg/kg oral, 24 hours after treatment

## C[C@H]1CC(CN)(CC(=O)O)C[C@@H]1C [Compound A, (3S, 4S)-(1-Aminomethyl-3,4-dimethyl-cyclopentyl)-acetic acid]
[1]
  Screen fall-off: did not cause animals to fall off
[2]; 0.3 mg/kg PO
  Percent of Animals Tested With >20 Shock Episodes: 20%
  Mean Shock Episodes (1 mA): 16.5 ± 8.7
[2]; 1 mg/kg PO
  Percent of Animals Tested With >20 Shock Episodes: 10%
  Mean Shock Episodes (1 mA): 11.7 ± 4.2
[2]; 3 mg/kg PO
  Percent of Animals Tested With >20 Shock Episodes: 17%
  Mean Shock Episodes (1 mA): 16.7 ± 4.3
[2]; 3 mg/kg, 1 hr post treatment
  Shock episodes (time-course): 38.8 ± 12.2
[2]; 3 mg/kg, 2 hr post treatment
  Shock episodes (time-course): 55.7 ± 12.7
[2]; 3 mg/kg, 4 hr post treatment
  Shock episodes (time-course): 38.4 ± 12.2
[2]; 3 mg/kg, 6 hr post treatment
  Shock episodes (time-course): 44.7 ± 13.3
[2]; 3 mg/kg, 8 hr post treatment
  Shock episodes (time-course): 7.7 ± 1.2
[2]; 10 mg/kg PO
  Percent of Animals Tested With >20 Shock Episodes: 43%
  Mean Shock Episodes (1 mA): 33.8 ± 6.2
[2]; 10 mg/kg, 30 min. post treatment
  Shock episodes (time-course): 14.1 ± 3.1
[2]; 10 mg/kg, 1 hr post treatment
  Shock episodes (time-course): 28.2 ± 7.6
[2]; 10 mg/kg, 2 hr post treatment
  Shock episodes (time-course): 29.6 ± 8.0
[2]; 10 mg/kg, 4 hr post treatment
  Shock episodes (time-course): 47.7 ± 11.7
[2]; 10 mg/kg, 6 hr post treatment
  Shock episodes (time-course): 38.4 ± 13.2
[2]; 30 mg/kg PO
  Percent of Animals Tested With >20 Shock Episodes: 67%
  Mean Shock Episodes (1 mA): 46.3 ± 7.6
[2]; 30 mg/kg, 30 min. post treatment
  Shock episodes (time-course): 35.8 ± 12.6
[2]; 30 mg/kg, 1 hr post treatment
  Shock episodes (time-course): 93.3 ± 12.1
[2]; 30 mg/kg, 2 hr post treatment
  Shock episodes (time-course): 88.4 ± 7.4
[2]; 30 mg/kg, 4 hr post treatment
  Shock episodes (time-course): 73.5 ± 12.2
[2]; 30 mg/kg, 6 hr post treatment
  Shock episodes (time-course): 97.4 ± 11.1
[2]; 100 mg/kg PO
  Percent of Animals Tested With >20 Shock Episodes: 90%
  Mean Shock Episodes (1 mA): 52.8 ± 10.9
[2]; 10 and 30 mg/kg respectively
  Time of peak activity after treatment: 4 to 6 h
[2]; MED dose 3 mg/kg
  Activity maintained through: 6 h
  Onset of activity after treatment: 2 h
  Time of peak activity: 2 h
[2]; [4]
  Activity maintained through: 6 h
  Onset of activity after treatment: 1 h
[2]; [5]
  Dose of maximal anti-conflict effects: 100 mg/kg
  MED for anti-conflict activity: 3 mg/kg
[3]; 3 mg/kg group, before oral dose
  Mean Paw Withdrawal Threshold before dose (g ± S.E.M.): 6.3 ± 0.8 g
[3]; 3 mg/kg oral, 2 hr after dose
  Mean % Inhibition of Allodynia: 33%
  Mean Paw Withdrawal Threshold 2 hr after dose (g ± S.E.M.): 11.4 ± 1.7 g
[3]; 10 mg/kg group, Prior to Treatment (Table II)
  Mean Paw Withdrawal Threshold (g ± S.E.M.): 6.5 ± 0.9 g
[3]; 10 mg/kg group, before oral dose (Table I)
  Mean Paw Withdrawal Threshold before dose (g ± S.E.M.): 6.2 ± 1.0 g
[3]; 10 mg/kg oral
  Efficacy sustained throughout observation period after dosing: ≥ 24 h
[3]; [6]
  Mean % Inhibition of Allodynia: 60% ± 10
  Mean Paw Withdrawal Threshold after treatment (g ± S.E.M.): 16.0 ± 1.4 g
[3]; [7]
  Mean % Inhibition of Allodynia: 72%
  Mean Paw Withdrawal Threshold 2 hr after dose (g ± S.E.M.): 17.4 ± 1.5 g
[3]; [8]
  Mean % Inhibition of Allodynia: 62% ± 10
  Mean Paw Withdrawal Threshold after treatment (g ± S.E.M.): 15.2 ± 1.8 g
[3]; [9]
  Mean % Inhibition of Allodynia: 31% ± 12
  Mean Paw Withdrawal Threshold after treatment (g ± S.E.M.): 9.9 ± 2.0 g
[3]; [10]
  Mean % Inhibition of Allodynia: 46% ± 17
  Mean Paw Withdrawal Threshold after treatment (g ± S.E.M.): 13.3 ± 2.8 g
[3]; oral, 2 hours after dosing
  Minimum effective dose for attenuating allodynia: 10 mg/kg
